Assay results from patent publication US12441691B2 (Cytokinetics, Inc., priority 2020, dated 2025).

What follows are molecules tested on rabbit skeletal myofibrils (fast skeletal myofibrils) (assay: Activation of fast skeletal myofibrils (PUMA assay, AC1.4)). Conditions: calcium at pCa25, AC1.4 = concentration at which the compound increased the enzymatic activity.
Assay type: biochemical
Experimental: Preparation of fast skeletal myofibrils: Rabbit skeletal myofibrils were prepared based upon the method of Herrmann et al. (Biochem. 32(28):7255-7263(1993). Myofibrils were prepared from rabbit psoas muscle purchased from Pel-Freez Biologicals (Arkansas) within 2 days of ordering, stored on ice. Minced muscle was homogenized in 10 volumes of ice-cold “standard” buffer (50 mM Tris, pH 7.4, 0.1 M KOAc, 5 mM KCl, 2 mM dithiothreitol (DTT), 0.2 mM phenylmethylsulfonyl fluoride (PMSF), 10 μM leupeptin, 5 μM pepstatin, and 0.5 mM sodium azide) containing 5 mM ethylenediaminetetraacetic acid (EDTA) and 0.5% Triton X-100 using an Omni-Macro homogenizer. Myofibrils were recovered by low speed centrifugation (3000 rpm for 10 minutes) and washed 2 times in the Triton X-100 containing buffer to ensure removal of cellular membrane. Following the Triton washes, myofibrils were washed 3 times in “standard” buffer containing 2 mM magnesium acetate. A final wash in assay buffer (12 mM piperazine-1,4-bis(2-ethanesulfonic acid) (PIPES), pH 6.8, 60 mM KCl, 1 mM DTT) was performed and brought to 10% sucrose for flash freezing in liquid nitrogen and storage at −80° C.
Activation of Fast Skeletal Myofibrils: Fast fiber activators were identified by measuring the enzymatic activity of muscle myofibril preparations using the proprietary PUMA (trademark) (see, e.g., U.S. Pat. Nos. 6,410,254, 6,743,599, 7,202,051, and 7,378,254) assay system. Myofibril preparations consisted of rabbit skeletal muscle (approximately 90% fast fibers) that had been mechanically homogenized and washed with a detergent (Triton X-100) to remove cellular membranes. This preparation retained all of the sarcomeric components in a native conformation and the enzymatic activity was still regulated by calcium. Compounds were tested using a myofibril suspension and a level of calcium sufficient to increase enzymatic activity of the myofibrils to 25% of their maximal rate (termed pCa25). Enzymatic activity was tracked via a pyruvate kinase and lactate dehydrogenase-coupled enzyme system. This assay regenerates myosin-produced ADP into ATP by oxidizing NADH, producing an absorbance change at 340 nm. The buffering system was 12 mM PIPES, 2 mM MgCl2, 1 mM DTT at pH 6.8 (PM12 buffer). […] In Table 9, “Example Compound” refers to the compound labeled with the same number in Table 2.
With CC[C@H](C)[C@H]1C(=O)Nc2ccccc2[C@@H]2COC(=O)N12 (single isomer, unassigned) [Compound 36] the AC1.4 was 0.09 µM. CC[C@H](C)[C@H]1C(=O)Nc2ccccc2[C@H](CO)N1C(N)=O (single isomer, unassigned) [Compound 37] gave an AC1.4 of 0.26 µM. With CC[C@H](C)[C@H]1C(=O)Nc2ccccc2[C@H](C)N1C(=O)c1cnn(C)c1 (single isomer, unassigned) [Compound 38] the AC1.4 was 0.10 µM. Work on CC[C@H](C)[C@H]1C(=O)Nc2ccccc2[C@H](C)N1C(N)=O (single isomer, unassigned) [Compound 39] yielded an AC1.4 of 0.17 µM. Work on CC[C@H](C)[C@H]1C(=O)Nc2ccccc2[C@@H](C(=O)OC)N1C(=O)c1cnn(C)c1 (single isomer, unassigned) [Compound 321] yielded an AC1.4 of 0.12 µM. Work on CC[C@H](C)[C@H]1C(=O)Nc2ccccc2CN1c1nccc(=O)[nH]1 [Compound 3, (S)-3-((S)-sec-Butyl)-4-(6-oxo-1,6-dihydropyrimidin-2-yl)-1,3,4,5-tetrahydro-2H-benzo[e][1,4]diazepin-2-one] yielded an AC1.4 of 0.09 µM. CC[C@H](C)[C@H]1C(=O)Nc2ccccc2CN1c1nn[nH]n1 [Compound 4, (S)-3-((S)-sec-Butyl)-4-(2H-tetrazol-5-yl)-1,3,4,5-tetrahydro-2H-benzo[e][1,4]diazepin-2-one] gave an AC1.4 of 0.21 µM. Work on CC[C@H](C)[C@H]1C(=O)Nc2ccccc2CN1C(N)=O [Compound 5, (S)-3-((S)-sec-Butyl)-2-oxo-1,2,3,5-tetrahydro-4H-benzo[e][1,4]diazepine-4-carboxamide] yielded an AC1.4 of 0.08 µM. With CC[C@H](C)[C@H]1C(=O)Nc2cncnc2CN1C(N)=O [Compound 11, (S)-7-((S)-sec-Butyl)-6-oxo-5,6,7,9-tetrahydro-8H-pyrimido[5,4-e][1,4]diazepine-8-carboxamide] the AC1.4 was 1.30 µM. In the case of CC[C@H](C)[C@H]1C(=O)Nc2cc(F)cnc2CN1C(N)=O [Compound 13, (S)-3-((S)-sec-Butyl)-8-fluoro-2-oxo-1,2,3,5-tetrahydro-4H-pyrido[3,2-e][1,4]diazepine-4-carboxamide], the AC1.4 is reported as 1.03 µM. In the case of CC[C@H](C)[C@H]1C(=O)Nc2ccccc2-c2cnc(O)n21 [Compound 14, (S)-5-((S)-sec-Butyl)-3-hydroxy-5H-benzo[f]imidazo[1,5-d][1,4]diazepin-6(7H)-one], the AC1.4 is reported as 0.15 µM. CC[C@H](C)[C@H]1C(=O)Nc2ccccc2CN1C(C)=O [Compound 15, (S)-4-Acetyl-3-((S)-sec-butyl)-1,3,4,5-tetrahydro-2H-benzo[e][1,4]diazepin-2-one] showed an AC1.4 of 0.27 µM. In the case of CC[C@H](C)[C@H]1C(=O)Nc2ccccc2CN1C(=O)c1cnn(CCO)c1 [Compound 16, (S)-3-((S)-sec-Butyl)-4-(1-(2-hydroxyethyl)-1H-pyrazole-4-carbonyl)-1,3,4,5-tetrahydro-2H-benzo[e][1,4]diazepin-2-one], the AC1.4 is reported as 0.14 µM. Work on CC[C@H](C)[C@H]1C(=O)Nc2ccccc2CN1C(=O)CN [Compound 17, (S)-3-((S)-sec-Butyl)-4-glycyl-1,3,4,5-tetrahydro-2H-benzo[e][1,4]diazepin-2-one] yielded an AC1.4 of 2.83 µM. Molecule CC[C@H](C)[C@H]1C(=O)Nc2ccccc2CN1C(=O)CO [Compound 18, (S)-3-((S)-sec-Butyl)-4-(2-hydroxyacetyl)-1,3,4,5-tetrahydro-2H-benzo[e][1,4]diazepin-2-one] has an AC1.4 of 0.31 µM. Molecule CC[C@H](C)[C@H]1C(=O)Nc2ccccc2CN1C(=N)N [Compound 19, (S)-3-((S)-sec-Butyl)-2-oxo-1,2,3,5-tetrahydro-4H-benzo[e][1,4]diazepine-4-carboximidamide] has an AC1.4 of 0.13 µM. CC[C@H](C)[C@H]1C(=O)Nc2ccccc2CN1C(=O)OC [Compound 20, Methyl (S)-3-((S)-sec-butyl)-2-oxo-1,2,3,5-tetrahydro-4H-benzo[e][1,4]diazepine-4-carboxylate] showed an AC1.4 of 0.25 µM. For CC[C@H](C)[C@H]1C(=O)Nc2ccccc2CN1/C(=N/C#N)N(C)C [Compound 21, (S,E)-3-((S)-sec-Butyl)-N′-cyano-N,N-dimethyl-2-oxo-1,2,3,5-tetrahydro-4H-benzo[e][1,4]diazepine-4-carboximidamide], the AC1.4 was 0.18 µM. For CC[C@H](C)[C@H]1C(=O)Nc2ccccc2CN1/C(N)=N/C(=O)OC [Compound 22, Methyl ((E)-amino((S)-3-((S)-sec-butyl)-2-oxo-1,2,3,5-tetrahydro-4H-benzo[e][1,4]diazepin-4-yl)methylene)carbamate], the AC1.4 was 0.07 µM. CC[C@H](C)[C@H]1C(=O)Nc2ccccc2CN1c1nc(O)cc(=O)[nH]1 [Compound 23, (S)-3-((S)-sec-Butyl)-4-(4-hydroxy-6-oxo-1,6-dihydropyrimidin-2-yl)-1,3,4,5-tetrahydro-2H-benzo[e][1,4]diazepin-2-one] showed an AC1.4 of 0.16 µM. Molecule CC[C@H](C)[C@H]1C(=O)Nc2ccccc2CN1c1ncc(N)c(=O)[nH]1 [Compound 24, (S)-4-(5-Amino-4-hydroxypyrimidin-2-yl)-3-((S)-sec-butyl)-1,3,4,5-tetrahydro-2H-benzo[e][1,4]diazepin-2-one] has an AC1.4 of 0.08 µM. CC[C@H](C)[C@H]1C(=O)Nc2ccccc2CN1c1noc(=O)[nH]1 [Compound 25, 3-((S)-3-((S)-sec-Butyl)-2-oxo-1,2,3,5-tetrahydro-4H-benzo[e][1,4]diazepin-4-yl)-1,2,4-oxadiazol-5(4H)-one] gave an AC1.4 of 0.12 µM. For CC[C@H](C)[C@H]1C(=O)Nc2ccccc2CN1S(C)(=O)=O [Compound 26, (S)-3-((S)-sec-Butyl)-4-(methylsulfonyl)-1,3,4,5-tetrahydro-2H-benzo[e][1,4]diazepin-2-one], the AC1.4 was 0.78 µM. Molecule CC[C@H](C)[C@H]1C(=O)Nc2ccccc2CN1S(=O)(=O)N(C)C [Compound 27, (S)-3-((S)-sec-Butyl)-N,N-dimethyl-2-oxo-1,2,3,5-tetrahydro-4H-benzo[e][1,4]diazepine-4-sulfonamide] has an AC1.4 of 0.23 µM. CC(=O)N1Cc2ccccc2NC(=O)[C@@H]1C1CCCCC1 [Compound 28, (S)-4-acetyl-3-cyclohexyl-1,3,4,5-tetrahydro-2H-benzo[e][1,4]diazepin-2-one] was tested, and the AC1.4 was 0.28 µM. For NC(=O)N1Cc2ccccc2NC(=O)[C@@H]1C1CCCCC1 [Compound 29, (S)-3-Cyclohexyl-2-oxo-1,2,3,5-tetrahydro-4H-benzo[e][1,4]diazepine-4-carboxamide], the AC1.4 was 0.22 µM. CC[C@H](C)[C@H]1C(=O)Nc2ccccc2CN1c1c(N2CC(O)C2)c(=O)c1=O [Compound 30, 3-((S)-3-((S)-sec-Butyl)-2-oxo-1,2,3,5-tetrahydro-4H-benzo[e][1,4]diazepin-4-yl)-4-(3-hydroxyazetidin-1-yl)cyclobut-3-ene-1,2-dione] was tested, and the AC1.4 was 0.08 µM. CC[C@H](C)[C@H]1C(=O)Nc2ccccc2CN1C(=O)NC [Compound 31, (S)-3-((S)-sec-Butyl)-N-methyl-2-oxo-1,2,3,5-tetrahydro-4H-benzo[e][1,4]diazepine-4-carboxamide] gave an AC1.4 of 0.21 µM. CC[C@H](C)[C@H]1C(=O)Nc2ccccc2CN1C(=O)C(N)=O [Compound 33, 2-((S)-3-((S)-sec-Butyl)-2-oxo-1,2,3,5-tetrahydro-4H-benzo[e][1,4]diazepin-4-yl)-2-oxoacetamide] gave an AC1.4 of 1.14 µM. CC[C@H](C)[C@H]1C(=O)Nc2ccccc2CN1c1nc(C)ns1 [Compound 34, (S)-3-((S)-sec-Butyl)-4-(3-methyl-1,2,4-thiadiazol-5-yl)-1,3,4,5-tetrahydro-2H-benzo[e][1,4]diazepin-2-one] gave an AC1.4 of 0.09 µM. CC[C@H](C)[C@H]1C(=O)Nc2ccccc2CN1c1nccs1 [Compound 35, (3S)-3-[(2S)-Butan-2-yl]-4-(1,3-thiazol-2-yl)-1,3,4,5-tetrahydro-2H-1,4-benzodiazepin-2-one] was tested, and the AC1.4 was 0.07 µM. In the case of CC[C@H](C)[C@H]1C(=O)Nc2ccccc2C(C(=O)NC)N1C(N)=O (stereo partly drawn) [Compound 40, (3S)-3-((S)-sec-Butyl)-N^5-methyl-2-oxo-1,2,3,5-tetrahydro-4H-benzo[e][1,4]diazepine-4,5-dicarboxamide], the AC1.4 is reported as 2.57 µM. CC(C)[C@H]1C(=O)Nc2ccccc2CN1C(=O)c1cnn(C)c1 [Compound 41, (S)-3-Isopropyl-4-(1-methyl-1H-pyrazole-4-carbonyl)-1,3,4,5-tetrahydro-2H-benzo[e][1,4]diazepin-2-one] was tested, and the AC1.4 was 0.96 µM. For CC[C@H](C)[C@H]1C(=O)Nc2cc(F)ccc2CN1C(=O)CO [Compound 42, (S)-3-((S)-sec-butyl)-8-fluoro-4-(2-hydroxyacetyl)-1,3,4,5-tetrahydro-2H-benzo[e][1,4]diazepin-2-one], the AC1.4 was 0.33 µM.
